Laboratory results as given in patent US20070037179A1, “Methods of diagnosing and prognosticating solid tumors and melanoma” (priority 2004, published 2007).

Tests used:
A3 adenosine receptors [1] = molecular target: T1, A3 adenosine receptors (Homo sapiens, UniProt P0DMS8); assay: [3H]MRE 3008F20 saturation binding to membranes of peripheral blood lymphocytes and neutrophils; parameters: endogenous in cells; host or cells: neutrophils and lymphocytes from peripheral venous blood of colorectal cancer patients and healthy volunteers; settings: N=3
T1 sequence (P0DMS8 1-318): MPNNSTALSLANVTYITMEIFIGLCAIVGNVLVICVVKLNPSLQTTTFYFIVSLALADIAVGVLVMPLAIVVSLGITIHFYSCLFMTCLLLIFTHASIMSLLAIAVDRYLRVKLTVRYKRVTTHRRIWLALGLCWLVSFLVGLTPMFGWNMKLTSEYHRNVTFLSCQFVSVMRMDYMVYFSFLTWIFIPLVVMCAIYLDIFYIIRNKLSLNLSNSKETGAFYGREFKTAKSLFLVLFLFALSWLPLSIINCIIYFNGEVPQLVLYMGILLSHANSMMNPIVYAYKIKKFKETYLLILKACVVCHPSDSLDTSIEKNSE
Protocol: (§1) Non-specific binding was determined in the presence of 1 μM MRE 3008F20. Bound and free radioactivity were separated, after an incubation time of 120 min at 4° C., by filtering the assay mixture using a Brandel cell harvester. The protein concentration was determined according to a Bio Rad method (26). Binding to A1 and A2A adenosine receptors was performed using [^3H]1,3-dipropyl-8-cyclopentyl-xanthine ([^3H]DPCPX) and [^3H]4-(2-[7-amino-2-(2-furyl)-[1,2,4]triazolo-[2,32][1,3,6]triazinyl-amino]ethyl)-phenol ([^3H]ZM 241385), respectively, as previously described (16, 24).
(§2) Data and statistical analysis. A weighted nonlinear least squares curve fitting program, LIGAND was used for computer analysis of the data from saturation experiments (28). Significant differences between control and patients with colorectal cancer were assessed using Student's t-test or analysis of variance (ANOVA) and the Dunnett's test when required. P<0.05 was considered significant. All data are reported as means±SEM.

A3 adenosine receptors [2] = molecular target: T1, A3 adenosine receptors; assay: [3H]MRE 3008F20 saturation binding to colonic membranes; parameters: Colon cancer tissues and related mucosa were homogenized in PBS buffer with a Polytron (Kinematica) and centrifuged; from tissue; host or cells: surgical specimens of human colorectal carcinoma, adenoma and adjacent/remote normal colonic mucosa
Protocol: PREPARATION OF COLONIC MEMBRANE SUSPENSIONS. Colon cancer tissues and related mucosa were homogenized in PBS buffer with a Polytron (Kinematica) and centrifuged for 15 min at 48,000 g. The membrane pellet was resuspended in 50 mM Tris/HCl buffer pH 7.4 (50 mM Tris/HCl, 10 mM MgCl2, 1 mM EDTA) and incubated with 3 IU/ml of adenosine deaminase for 30 min at 37° C. This suspension was used for binding experiments.
as §1, §2

CCCn1cc2c(nc(NC(=O)Nc3ccc(OC)cc3)n3nc(-c4ccco4)nc23)n1 [[^3H]MRE 3008F20, 5-N-(4-methoxyphenyl-carbamoyl)amino-8-propyl-2(2furyl)-pyrazolo-[4,3 e]-1,2,4-triazolo [1,5-c]pyrimidine] was tested, and the Bmax (A3 adenosine receptors [1]; lymphocytes of patients with small adenomas) was 106±15 fmol/mg of protein, the Bmax (A3 adenosine receptors [1]; neutrophils of patients with small adenomas) was 547±77 fmol/mg of protein and the Bmax (A3 adenosine receptors [2]; adjacent normal (AN) mucosa, 2 cm from tumor) was 295±20 fmol/mg of protein. The Bmax (A3 adenosine receptors [2]; colonic membranes from 14 patients operated for non-neoplastic large bowel disease) was 163±10 fmol/mg of protein, the Bmax (A3 adenosine receptors [2]; large adenomas with high-grade dysplasia, N=4) was 302±15 fmol/mg of protein and the Bmax (A3 adenosine receptors [2]; remote normal (RN) mucosa, 10 cm from tumor) was 196±10 fmol/mg of protein. For the same compound, the Bmax (A3 adenosine receptors [2]; small adenomas with low-grade dysplasia, N=4) was 155±24 fmol/mg of protein and the Bmax (A3 adenosine receptors [2]; tumor tissues, 73 primary colorectal carcinomas, mean±SEM) was 584±35 fmol/mg of protein.
